From article PMC3948622, “Docking, Synthesis and Antiproliferative Activity of N-Acylhydrazone Derivatives Designed as Combretastatin A4 Analogues” (PLoS ONE, 2014)
Values after ≈ are worked out from the molar mass of the structure shown. Where two headings read alike, the source gives them in different places.

Tests used:
[1] = tested on: SF-295 (human glioblastoma); test: In vitro antiproliferative MTT assay, SF-295; assay type: cell-based; details: for IC50: Homo sapiens, SF-295, read-out: IC50 SF295; for SI Lymphocyte/ SF-295: IC50 for human lymphocytes/IC50 for cancer cell line
Procedure: (§1) The antiproliferative activity of compounds 5a–r was determined based on an MTT assay and using CA-4 as standard against the tumor cell lines: HL-60 (human leukemia), SF-295 (human glioblastoma), MDA-MB435 (melanoma), PC3M (prostate cancer), OVCAR-8 (ovaries adenocarcinoma), NCI-H258M (pulmonary bronchio-alveolar carcinoma) and HCT-8 (adenocarcinoma ileocecal) (Table 2). To determine the selectivity index of compounds 5a–r, their antiproliferative profile was also evaluated toward human lymphocytes (Table 2).
(§2) Compounds (0.009–5 µg/mL) were tested for cytotoxic activity against selected cancer cell lines: SF-295 (glioblastoma), HCT-8 (colon), MDAMB-435 (melanoma), HL60 (leukemia), PC3M (prostate cancer), OVCAR-8 (ovaries adenocarcinoma) and NCI-H258M (pulmonary bronchio-alveolar carcinoma). All cell lines were kindly obtained from the National Cancer Institute (Bethesda, MD, USA).Tumor cell proliferation was quantified through the ability of living cells to reduce the yellow dye 3-(4,5-dimethyl-2-thiazolyl)-2,5-diphenyl-2H-tetrazolium bromide (MTT, Sigma Aldrich)) to a purple formazan product and absorbance was measured at 595 nm (DTX-880, Beckman Coulter).

[2] = Aqueous solubility assay by ultraviolet spectroscopy; assay type: physicochemical; details: water (saturated aqueous solution), thermodynamic from solid, 2 hours at 37°C, read-out: Aq. Solubility
Procedure: Ultraviolet spectroscopy was performed using Femto spectrophotometer. The wavelength used in solubility assay was determined by the -λ max characteristic of each compound. Spectra were analyzed in Femtoscan software. Mass spectrometry was obtained by positive ionization at Bruker AmaZon SL and data analyzed in Compass 1.3.SR2 software.
The solubility assay was performed considering the absorptivity of compounds in ultraviolet spectroscopy as described by Schneider and coworkers. The assay wavelength was determined by the λ max characteristic of each compound.
Saturated aqueous solutions were prepared (0.01 mg/mL) and were kept under stirring for 2 hours at 37°C. The supernatant was filtered in 0,45 µm filters and transferred to a quartz cuvette (10 mm) to spectra acquisition.
Solubility was determined by linear regression using as graph plots, solutions prepared by dilutions of the original solution in methanol. The data were obtained in triplicates and the mean values were used to the graph plots. The correlation coefficient (R^2) values were between 0.9972 and 0.9999.

MDA-MB435 (melanoma) [3] = test: In vitro antiproliferative MTT assay, MDA-MB435; assay type: cell-based; details: IC50 for human lymphocytes/IC50 for cancer cell line
Procedure: as §1, §2

HL-60 (human leukemia) = test: In vitro antiproliferative MTT assay, HL-60; assay type: cell-based; details: for IC50: Homo sapiens, HL-60; for SI Lymphocyte/ HL-60: IC50 for human lymphocytes/IC50 for cancer cell line
Procedure: as §1, §2

human lymphocytes = test: In vitro antiproliferative assay, human lymphocytes; assay type: cell-based; details: Lymphocyte, Table 2
Procedure: as §1
To investigate the selective cytotoxic activity of the N-acylhydrazones derivatives (5a–r), their antiproliferative potency was also assessed toward human lymphocytes and the results were compared to the data from CA-4 ([…]). The selectivity index (SI), which was the IC50 for human lymphocytes/IC50 for cancer cell lines after treatment with CA-4 and N-acylhydrazones (5a–r), was calculated, as depicted in Table 3. […] The best comparative selectivity indices (CA-4 vs 5b) were obtained from the SF-295 (SI = 13), MDA-MB435 (SI = 42) and NCI-H258M (SI = 9.5) tumor cell lines, and the worst results were found for OVCAR-8 (SI = 0.5).

[4] = tested on: HCT-8 (adenocarcinoma ileocecal); test: In vitro antiproliferative MTT assay, HCT-8; assay type: cell-based; details: for IC50: Homo sapiens, HCT-8; for SI Lymphocyte/ HCT-8: IC50 for human lymphocytes/IC50 for cancer cell line
Procedure: as §1, §2

PC3M (prostate cancer) = test: In vitro antiproliferative MTT assay, PC3M; assay type: cell-based; details: for IC50: Homo sapiens, PC-3M, Table 2, MTT; for SI Lymphocyte/ PC3M: IC50 for human lymphocytes/IC50 for cancer cell line
Procedure: as §1, §2

MDA-MB435 (melanoma) [5] = test: In vitro antiproliferative MTT assay, MDA-MB435; assay type: cell-based; details: Homo sapiens, MDA-MB-435
[6] = tested on: OVCAR-8 (ovaries adenocarcinoma); test: In vitro antiproliferative MTT assay, OVCAR-8; assay type: cell-based; details: for IC50: Homo sapiens, OVCAR-8, Table 2, MTT; for SI Lymphocyte/ OVCAR-8: IC50 for human lymphocytes/IC50 for cancer cell line
Procedure: as §1, §2

[7] = tested on: NCI-H358M (pulmonary bronchio-alveolar carcinoma); test: In vitro antiproliferative MTT assay, NCI-H358M; assay type: cell-based; details: for SI Lymphocyte/ NCI-H358M: IC50 for human lymphocytes/IC50 for cancer cell line; for IC50: NCI-H358M, Table 2, MTT

COc1ccc(/C=C\c2cc(OC)c(OC)c(OC)c2)cc1O [CA-4, Combretastatin A4]
IC50 ([1]; Table 2, MTT): 6.2 nM | SI Lymphocyte/ SF-295 [1]: 0.44±0.04 | solubility at 2 h [2]: 5.44 µg/mL (≈ 17.2 µM) | SI Lymphocyte/ MDA-MB345 (MDA-MB435 (melanoma) [3]): 0.42±0.02 | IC50 (HL-60 (human leukemia); Table 2, MTT): 2.1 nM | SI Lymphocyte/ HL-60 (HL-60 (human leukemia)): 1.44±0.05 | IC50 (human lymphocytes): 3.2 nM | IC50 ([4]; Table 2, MTT): 5.3 nM | SI Lymphocyte/ HCT-8 [4]: 0.59±0.01 | IC50 (PC3M (prostate cancer)): 4.7 nM | IC50 (MDA-MB435 (melanoma) [5]; Table 2, MTT): 7.9 nM | IC50 [6]: 0.37 nM | SI Lymphocyte/ NCI-H358M [7]: 0.52±0.12 | IC50 [7]: 8 nM

COc1ccc(/C=N/NC(=O)c2cc(OC)c(OC)c(OC)c2)cc1OC [Compound 5g, (E)-N′-(3,4-dimethoxybenzylidene)-3,4,5-trimetoxybenzohydrazide]
IC50 ([1]; Table 2, MTT): 18100 nM | SI Lymphocyte/ SF-295 [1]: 0.99±0.005 | solubility at 2 h [2]: 1.94 µg/mL (≈ 5.18 µM) | SI Lymphocyte/ MDA-MB345 (MDA-MB435 (melanoma) [3]): 8.41±0.09 | IC50 (HL-60 (human leukemia); Table 2, MTT): 4430 nM | SI Lymphocyte/ HL-60 (HL-60 (human leukemia)): 4.10±0.10 | melting point: 190 to 191 °C | IC50 (human lymphocytes): 18000 nM | IC50 ([4]; Table 2, MTT): 7050 nM | SI Lymphocyte/ HCT-8 [4]: 2.50±0.005 | IC50 (PC3M (prostate cancer)): 12600 nM | SI Lymphocyte/ PC3M (PC3M (prostate cancer)): 1.44±0.04 | IC50 (MDA-MB435 (melanoma) [5]; Table 2, MTT): 2110 nM | IC50 [6]: 7110 nM | SI Lymphocyte/ OVCAR-8 [6]: 2.55±0.05 | SI Lymphocyte/ NCI-H358M [7]: 1.80±0.005 | IC50 [7]: 10200 nM

COc1cc(C(=O)N/N=C/c2ccc3c(c2)OCO3)cc(OC)c1OC [Compound 5h, (E)-N′-(benzo[d][1], [3]dioxol-5-ylmethylene)-3,4,5-trimetoxybenzohydrazide]
IC50 ([1]; Table 2, MTT): 860 nM | SI Lymphocyte/ SF-295 [1]: 1.47±0.02 | solubility at 2 h [2]: 1.34 µg/mL (≈ 3.74 µM) | SI Lymphocyte/ MDA-MB345 (MDA-MB435 (melanoma) [3]): 13.17±1.37 | IC50 (HL-60 (human leukemia); Table 2, MTT): 3070 nM | SI Lymphocyte/ HL-60 (HL-60 (human leukemia)): 0.43±0.01 | melting point: 222 to 223 °C | IC50 (human lymphocytes): 1310 nM | IC50 ([4]; Table 2, MTT): 55800 nM | SI Lymphocyte/ HCT-8 [4]: 0.02±0.002 | IC50 (PC3M (prostate cancer)): 1140 nM | SI Lymphocyte/ PC3M (PC3M (prostate cancer)): 1.14±0.06 | IC50 (MDA-MB435 (melanoma) [5]; Table 2, MTT): 110 nM | IC50 [6]: 1090 nM | SI Lymphocyte/ OVCAR-8 [6]: 1.16±0.04 | SI Lymphocyte/ NCI-H358M [7]: 0.62±0.02 | IC50 [7]: 2150 nM

COc1cc(/C=N/NC(=O)c2cc(OC)c(OC)c(OC)c2)cc(OC)c1OC [Compound 5i, (E)-3,4,5-trimethoxy-N′-(3,4,5-trimethoxybenzylidene)benzohydrazide]
IC50 ([1]; Table 2, MTT): > 25000 nM | SI Lymphocyte/ SF-295 [1]: 1 | solubility at 2 h [2]: 0.0894 µg/mL (≈ 0.221 µM) | SI Lymphocyte/ MDA-MB345 (MDA-MB435 (melanoma) [3]): 1 | IC50 (HL-60 (human leukemia); Table 2, MTT): > 25000 nM | SI Lymphocyte/ HL-60 (HL-60 (human leukemia)): 1 | melting point: 232 °C | IC50 (human lymphocytes): > 61800 nM | IC50 ([4]; Table 2, MTT): > 25000 nM | SI Lymphocyte/ HCT-8 [4]: 1 | IC50 (PC3M (prostate cancer)): > 25000 nM | SI Lymphocyte/ PC3M (PC3M (prostate cancer)): 1 | IC50 (MDA-MB435 (melanoma) [5]; Table 2, MTT): > 25000 nM | IC50 [6]: > 25000 nM | SI Lymphocyte/ OVCAR-8 [6]: 1 | SI Lymphocyte/ NCI-H358M [7]: 1 | IC50 [7]: > 25000 nM

COc1cc(C(=O)N/N=C/c2ccc(C)cc2)cc(OC)c1OC [Compound 5o, (E)-3,4,5-trimethoxy-N′-(4-methylbenzylidene) benzohydrazide]
IC50 ([1]; Table 2, MTT): 93 nM | SI Lymphocyte/ SF-295 [1]: 0.08±0.00 | solubility at 2 h [2]: 6.93 µg/mL (≈ 21.1 µM) | SI Lymphocyte/ MDA-MB345 (MDA-MB435 (melanoma) [3]): 0.21±0.01 | IC50 (HL-60 (human leukemia); Table 2, MTT): 4.8 nM | SI Lymphocyte/ HL-60 (HL-60 (human leukemia)): 1.59±0.09 | IC50 (human lymphocytes): 7.3 nM | IC50 ([4]; Table 2, MTT): 46 nM | SI Lymphocyte/ HCT-8 [4]: 0.15±0.005 | IC50 (PC3M (prostate cancer)): 12.7 nM | SI Lymphocyte/ PC3M (PC3M (prostate cancer)): 0.56±0.04 | IC50 (MDA-MB435 (melanoma) [5]; Table 2, MTT): 35 nM | IC50 [6]: 8.2 nM | SI Lymphocyte/ OVCAR-8 [6]: 0.91±0.01 | SI Lymphocyte/ NCI-H358M [7]: 0.009±0.001 | IC50 [7]: 891 nM

COc1cc(C(=O)N/N=C/c2ccc(Cl)cc2)cc(OC)c1OC [Compound 5q, (E)-N′-(4-chlorobenzylidene)-3,4,5-trimetoxybenzohyidrazide]
IC50 ([1]; Table 2, MTT): 72 nM | SI Lymphocyte/ SF-295 [1]: 0.85±0.05 | solubility at 2 h [2]: 28.4 µg/mL (≈ 81.4 µM) | SI Lymphocyte/ MDA-MB345 (MDA-MB435 (melanoma) [3]): 3.07±0.22 | IC50 (HL-60 (human leukemia); Table 2, MTT): 36 nM | SI Lymphocyte/ HL-60 (HL-60 (human leukemia)): 1.85±0.15 | melting point: 187 to 188 °C | IC50 (human lymphocytes): 60 nM | IC50 ([4]; Table 2, MTT): 46 nM | SI Lymphocyte/ HCT-8 [4]: 1.25±0.05 | IC50 (PC3M (prostate cancer)): 27.5 nM | SI Lymphocyte/ PC3M (PC3M (prostate cancer)): 2.10±0.10 | IC50 (MDA-MB435 (melanoma) [5]; Table 2, MTT): 18 nM | IC50 [6]: 24 nM | SI Lymphocyte/ OVCAR-8 [6]: 2.75±0.25 | SI Lymphocyte/ NCI-H358M [7]: 0.05±0.005 | IC50 [7]: 1060 nM

COc1cc(C(=O)N/N=C/c2ccc(Br)cc2)cc(OC)c1OC [Compound 5r, (E)-N′-(4-bromobenzylidene) - 3,4,5-trimetoxybenzohyidrazide]
IC50 ([1]; Table 2, MTT): 59 nM | SI Lymphocyte/ SF-295 [1]: 0.49±0.05 | solubility at 2 h [2]: 0.262 µg/mL (≈ 0.666 µM) | SI Lymphocyte/ MDA-MB345 (MDA-MB435 (melanoma) [3]): 1.81 | IC50 (HL-60 (human leukemia); Table 2, MTT): 10.9 nM | SI Lymphocyte/ HL-60 (HL-60 (human leukemia)): 3.07±0.83 | IC50 (human lymphocytes): 31.4 nM | IC50 ([4]; Table 2, MTT): 22 nM | SI Lymphocyte/ HCT-8 [4]: 1.57±0.17 | IC50 (PC3M (prostate cancer)): 12.7 nM | SI Lymphocyte/ PC3M (PC3M (prostate cancer)): 2.29±0.20 | IC50 (MDA-MB435 (melanoma) [5]; Table 2, MTT): 18.3 nM | IC50 [6]: 7.3 nM | SI Lymphocyte/ OVCAR-8 [6]: 4.02±0.28 | SI Lymphocyte/ NCI-H358M [7]: 0.19±0.01 | IC50 [7]: 167 nM

COc1cc(C(=O)N(C)/N=C/c2ccccc2)cc(OC)c1OC [Compound 11, (E)-N′-benzylidene-3,4,5-trimethoxy-N-methylbenzohydrazide]
IC50 ([1]; Table 4): 3800 nM | IC50 (HL-60 (human leukemia); Table 4): 30 nM | melting point: 71 to 73 °C | IC50 ([4]; Table 4): 540 nM | IC50 (MDA-MB435 (melanoma) [5]; Table 4): 1910 nM
